The values that follow come from US8563557B2, “Pyrimidine derivatives and their pharmaceutical use” (University Court of the University of Dundee, priority 2008, dated 2013).

Structures are written as SMILES. “Also recorded” adds a separate entry of the source.

Data set [1] concerns acetylated α-tubulin in H1299 cells. In words: Acetylated tubulin levels in H1299 cells treated with compound and Trichostatin A (FIG. 2). It counts as cell-based. The settings on record: for acetylation of tubulin: H1299 cells, with Trichostatin A. An excerpt:
Total tubulin was used as a loading control.
(§1) Further evidence to support the selective targeting of SIRT1 and SIRT2 by these analogs came from studies in cells.

Data set [2] has as its target T1, SIRT1 (Homo sapiens, UniProt Q96EB6).
T1 sequence (Q96EB6 1-747): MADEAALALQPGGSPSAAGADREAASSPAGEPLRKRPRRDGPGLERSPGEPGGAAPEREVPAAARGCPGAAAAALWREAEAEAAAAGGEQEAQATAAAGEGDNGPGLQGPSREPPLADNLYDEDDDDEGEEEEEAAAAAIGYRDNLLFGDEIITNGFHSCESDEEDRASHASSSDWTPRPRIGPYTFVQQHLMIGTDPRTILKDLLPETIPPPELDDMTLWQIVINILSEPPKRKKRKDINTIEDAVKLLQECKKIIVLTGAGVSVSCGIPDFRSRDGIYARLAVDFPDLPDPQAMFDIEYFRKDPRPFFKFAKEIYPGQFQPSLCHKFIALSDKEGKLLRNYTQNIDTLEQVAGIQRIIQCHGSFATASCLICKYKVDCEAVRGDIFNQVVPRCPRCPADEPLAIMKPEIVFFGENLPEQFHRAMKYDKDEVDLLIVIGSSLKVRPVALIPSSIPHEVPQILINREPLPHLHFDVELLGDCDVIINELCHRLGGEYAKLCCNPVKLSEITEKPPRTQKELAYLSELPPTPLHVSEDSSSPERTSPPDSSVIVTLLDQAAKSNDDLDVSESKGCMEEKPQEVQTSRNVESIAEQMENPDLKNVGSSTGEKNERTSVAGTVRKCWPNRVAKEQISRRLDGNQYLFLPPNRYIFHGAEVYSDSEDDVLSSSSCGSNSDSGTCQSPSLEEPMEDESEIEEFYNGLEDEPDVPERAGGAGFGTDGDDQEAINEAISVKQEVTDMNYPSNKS
In words: In vitro inhibition of SIRT1 by cambinol analogs. As to conditions: for inhibition at 60 µM: read-out: Inhibition at 60 μM ± SE (%) SIRT1; for IC50: read-out: IC50 SIRT1, repeated at least two times.

The target of data set [3] is T2, SIRT2 (Homo sapiens, UniProt Q8IXJ6).
T2 sequence (Q8IXJ6 1-389): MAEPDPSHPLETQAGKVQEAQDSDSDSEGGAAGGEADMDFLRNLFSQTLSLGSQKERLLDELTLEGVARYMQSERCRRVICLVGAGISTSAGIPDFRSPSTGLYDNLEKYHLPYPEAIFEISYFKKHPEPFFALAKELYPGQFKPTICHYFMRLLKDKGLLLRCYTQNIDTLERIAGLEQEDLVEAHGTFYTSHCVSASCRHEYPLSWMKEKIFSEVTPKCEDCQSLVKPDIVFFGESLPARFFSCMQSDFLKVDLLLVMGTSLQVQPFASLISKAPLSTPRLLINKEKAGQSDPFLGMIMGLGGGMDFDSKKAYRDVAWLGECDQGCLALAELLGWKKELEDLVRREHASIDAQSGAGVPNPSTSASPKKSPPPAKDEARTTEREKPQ
In words: In vitro inhibition of SIRT2 by cambinol analogs. The settings on record: for IC50: read-out: IC50 SIRT2, repeated at least two times; for inhibition at 60 µM: read-out: Inhibition at 60 μM ± SE (%) SIRT2.

For data set [4], the system named is p53 and acetylated p53 in MCF-7 breast adenocarcinoma cells. Description: Expression of p53 and acetylated p53 in MCF-7 cells treated with compound, with etoposide (FIG. 3). The data set is classed as cell-based. As for the experimental part: Additionally, cells were treated with the same compounds in the presence of the genotoxic agent etoposide.
as §1

Data set [5] has as its system p53 and acetylated p53 in NCl H460 cancer cells. As to conditions: etoposide (10 μM); cited from earlier work.
The mark [6] stands for this setting: in the presence of etoposide (10 μM).

Usually melting point stands for the temperature of the solid-liquid transition. Broadly, the inhibition is the change of the read-out against control, counted positive when it falls. A word on the IC50: it is the concentration needed to halve the response being measured.

With `CCCn1c(-c2ccccc2)c(Cc2c(O)ccc3ccccc23)c(=O)[nH]c1=S` [Compound 6h, 5-(2″-Hydroxy-naphthalen-1-ylmethyl)-6-phenyl-1-propyl-2-thioxo-2,3-dihydro-1H-pyrimidin-4-one], the melting point is 227 to 229 °C. Moreover, the acetylation of tubulin result in data set [1] is on record as “significant increase in the levels of acetylated tubulin”. For the same compound, the “cell permeability in words” value in data set [1] (concluded from acetylated tubulin increase in cells) is reported as “cell-permeable”. Besides, the inhibition at 60 µM in data set [2] came to 25 ± 2%. Besides, in data set [3] (in vitro), the “selectivity for SIRT2 over SIRT1 in words” value is reported as “SIRT2 selective inhibitor”. Moreover, in data set [3], the IC50 was 4.8 ± 2 µM and the inhibition at 60 µM worked out at 94.7 ± 1%.

`O=c1[nH]c(=S)[nH]c(-c2ccc(Br)cc2)c1Cc1c(O)ccc2ccccc12` [Compound 6b, 6-(4-Bromo-phenyl)-5-(2-hydroxy-naphthalen-1-ylmethyl)-2-thioxo-2,3-dihydro-1H-pyrimidin-4-one] registered a melting point of 282 to 287 °C. In addition, the “levels of p53” value in data set [4] (setting [6]) is listed as “increased p53 levels”. Also, the “levels of p53 acetylated at lysine 382” value in data set [4] (in the presence of etoposide, compared to cambinol (1)) was “clear increase in potency compared to cambinol (1)”. Besides, the acetylation of tubulin result in data set [1] is listed as “did not lead to an increase in acetylation of tubulin”. In data set [2] (from IC50 values), the “improvement in activity against SIRT1 compared with cambinol (1)” value is 4 fold. The “selectivity for SIRT1 over SIRT2 in words” value in data set [2] (in vitro) is listed as “relatively selective inhibition of SIRT1; also recorded: selective SirT1 inhibitor”. Moreover, in data set [2], the IC50 was found to be 12.7 ± 2 µM and the inhibition at 60 µM turned out to be 82.3 ± 1%. For the same compound, in data set [3] (compared with cambinol (1)), the “activity against SIRT2 in words” value is recorded as “relative lack of activity”. Besides, the inhibition at 60 µM in data set [3] is 9.4 ± 1%.

`O=c1[nH]c(=S)[nH]c(-c2ccccc2)c1Cc1c(O)ccc2ccccc12` [Compound 1, 5-(2″-Hydroxy-naphthalen-1-ylmethyl)-6-phenyl-2-thioxo-2,3-dihydro-1H-pyrimidin-4-one, reference compound]: in data set [4] (setting [6]), the “concentration at which maximal p53 levels were observed” value stood at 50 µM and the “levels of p53” value is on record as “increased”. The “levels of p53 and acetylated p53” value in data set [5] is “higher levels of p53 and acetylated p53”.

As to `Cc1ccc(-c2[nH]c(=S)[nH]c(=O)c2Cc2c(O)ccc3ccccc23)cc1` [Compound 6iii, 5-(2″-Hydroxy-naphthalen-1-ylmethyl)-2-thioxo-6-p-tolyl-2,3-dihydro-1H-pyrimidin-4-one], the melting point was > 250 °C (dec.). For the same compound, in data set [2], the IC50 is 44.5 ± 1 µM and the inhibition at 60 µM turned out to be 79 ± 2%. Further, in data set [3], the inhibition at 60 µM is 13.4 ± 3%.

Consider `CCn1c(-c2ccccc2)c(Cc2c(O)ccc3ccccc23)c(=O)[nH]c1=S` [Compound 6f], for which the melting point is 256 to 258 °C. In addition, in data set [2], the inhibition at 60 µM turned out to be 31.9 ± 1%. Moreover, in data set [3], the IC50 was 10.5 ± 3 µM and the inhibition at 60 µM worked out at 86.8 ± 1%.
